Source: patent US20200147039A1, “COMPOUNDS USEFUL IN INHIBITING HUMAN TREFOIL FACTOR 3” (NATIONAL UNIVERSITY OF SINGAPORE, priority 2017, published 2020)

What was measured:
HTH83 = assay: AlamarBlue cell viability assay, HTH83; type: cell-based; conditions: Homo sapiens, Thyroid
Experimental: (§1) The human immortalized mammary epithelial cell lines, MCF10A, and MCF12A; and immortalized hepatocellular epithelial cell line, LO2 were obtained from the American Type Culture Collection (ATCC, Rockville, Md.) and were cultured as per ATCC propagation instructions. MC cell lines, MCF7, T47D, BT474, BT20, MDA-MB-361, MDA-MB-436, MDA-MB-468, and MDA-MB-231; endometrial carcinoma cell lines, Ishikawa, ECC1, RL95-2 and AN3; hepatocellular carcinoma cell lines, Hep3B, H2P, and H2M; colon carcinoma cell lines, DLD-1, and Caco-2; and prostate carcinoma cell lines, PC3, LNCaP, and DU145 were obtained from the American Type Culture Collection (ATCC, Rockville, Md.). Pancreatic carcinoma cell lines, AsPC-1 and BxPC-3; Lung carcinoma cell lines, HCC-827, NCI-H1975, HCC-4006, PC-14, and NCI-H1299; and Thyroid carcinoma cell lines HTH83, CAL62, T238, and OGK-M were obtained from Prof. H. Phillip Koeffler's laboratory at The Cancer Science Institute of Singapore, National University of Singapore (NUS). Gastric carcinoma cell lines, AGS, MKN-28, MKN-45, and A2-528 were obtained from Prof. […]
(§2) In table 9 IC50 values of compound 43 compound library in several cancer cell lines are tabulated, using an AlamarBlue® cell viability assay as previously described in Pandey V et al., Breast Cancer Res. 2014; 16(5):429. Statistical analysis was assessed by using GraphPad Prism5. […]

H2P = assay: AlamarBlue cell viability assay, H2P; type: cell-based; conditions: Homo sapiens, Hepatocellular
Experimental: as §1, §2

[1] = tested on: MCF7 cells with forced expression of TFF3; assay: MCF7 cells with forced expression of TFF3: western blot, cell viability, caspase 3/7 (FIG. 5); type: cell-based, human; conditions: MCF7 cells with forced expression of TFF3, 5 μM
Experimental: (A) Western blot analysis was used to assess the levels of pSTAT3, STAT3, BCL2, and CCND1 protein in MCF7 cells with forced expression of TFF3 after treatment with compound 43 (5 μM) and Stattic (2 μM) was used to treat cells. Depletion of STAT3 expression was achieved using transient-transfection of small interfering (si)-RNA (Invitrogen, Singapore) directed to STAT3 transcript as previously described in Pandey V et al., Breast Cancer Res. 2014; 16(5):429. Anti-TFF3 polyclonal antibody was used as previously described (ibid). Soluble whole cell extracts were run on a SDS-PAGE and immunoblotted as previously described (ibid). β-ACTIN was used as input control for cell lysate. The sizes of detected protein bands in kDa are shown on the right side (B) Cell viability and (C) caspase 3/7 activities in MCF7 cells with forced expression of TFF3 after treatment with compound 43 (5 μM) and Stattic (2 μM) was used to treat cells. […] Evaluated using ApoTox-Glo™ Triplex Assay Kit, Promega (Singapore) according to manufacturer's instructions. Cell viability fluorescence is measured at 400Ex/505Em, while apoptosis (caspase 3/7 activities) is determined with the luminescence measurement. […] Statistical significance was assessed by using an unpaired two-tailed Student's t test (P<0.05 was considered as significant) using GraphPad Prism5. […]

[2] = tested on: high-TFF3 expression MC cells; assay: ApoTox-Glo Triplex Assay and western blot (FIG. 2); type: cell-based, human; conditions: 10 μM
Experimental: Effect of compound 43 (10 μM) on cell viability of high-TFF3 MC cell lines. (A) Cell viability (B) caspase 3/7 activities and (C) cytotoxicity was evaluated using ApoTox-Glo™ Triplex Assay Kit Promega (Singapore) according to manufacturer's instructions. Cell viability fluorescence is measured at 400Ex/505Em, cytotoxicity fluorescence is measured at 485Ex/520Em, while apoptosis (caspase 3/7 activities) is determined by luminescence measurement. (D) Western blot analysis was used to assess the level of various protein markers and protein activity in high-TFF3 expression MC cells after treatment with compound 43. Soluble whole cell extracts were run on a SDS-PAGE and immunoblotted as previously described in Pandey V et al., Breast Cancer Res. 2014; 16(5):429. β-ACTIN (ACTB) was used as input control for cell lysate. The sizes of detected protein bands in kDa are shown on the left side. Statistical significance was assessed by using an unpaired two-tailed Student's t test (P<0.05 was considered as significant) using GraphPad Prism5. Columns are mean of triplicate experiments; bars, ±SD. **P<0.001, *P<0.05.

MKN-45 = assay: AlamarBlue cell viability assay, MKN-45; type: cell-based; conditions: Homo sapiens, Gastric
Experimental: as §1, §2

[3] = tested on: TFF3-high expressing mammary carcinoma (MC) cell lines; assay: AlamarBlue viability and Annexin V-FITC/PI flow cytometry in mammary carcinoma cell lines (FIG. 1); type: cell-based, human
Text: (§3) (A) Inhibitory concentration 50% (IC50) values for compound 43 in the MC cell lines are tabulated, using an AlamarBlue™ cell viability assay as previously described in Pandey V et al., Breast Cancer Res. 2014; 16(5):429. (B) Measured dose-dependent manner effect of compound 43 on the viability of MC cells (left-side, TFF3-high and right, TFF3-low) using AlamarBlue™ viability assay as previously described (ibid). (C) Apoptotic cell death of mammary carcinoma cell lines measured after treatment with 10 μM compound 43 using flow cytometry analysis at 24 hour as described previously in Keerthy H K et al., PloS one. 2014; 9(9):e107118. Annexin V-FITC staining is indicated on the X-axis and PI staining on the Y-axis. […] Acquisition of Annexin V and PI data were represented as percentage (%) in each quadrant. Note: CM, conditioned media; MCF10A and MCF12A, non-transformed immortalized-mammary epithelial cell line. Points are mean of triplicate experiments; bars, ±SD. Statistical significance was assessed by using an unpaired two-tailed Student's t test (P<0.05 was considered as significant) using GraphPad Prism5. Columns are mean of triplicate experiments; bars, ±SD. **P<0.001, *P<0.05.

T47D = assay: AlamarBlue cell viability assay, T47D; type: cell-based; conditions: Homo sapiens, Mammary
Text: as §3, with “Columns are mean of triplicate experiments; bars, ±SD. **P<0.001, *P<0.05.” left out
as §2

Caco-2 = assay: AlamarBlue cell viability assay, Caco-2; type: cell-based; conditions: Homo sapiens, Colon
Experimental: as §1, §2

Cc1cc(-c2ccc(C3C(C#N)=C(N)Oc4c3c(=O)oc3ccccc43)cc2)cnc1F (stereo not drawn) [Compound 43, 2-Amino-4-(4-(6-fluoro-5-methylpyridin-3-yl)phenyl)-5-oxo-4H,5H-pyrano[3,2-c]chromene-3-carbonitrile]
IC50 (HTH83): 0.56 µM | IC50 (H2P): 11.3 µM | TFF3-stimulated effects [1]: reverted | intrinsic apoptosis [2]: stimulates intrinsic apoptosis | IC50 (MKN-45): 6.81 µM | apoptosis ([3]; 10 μM, 24 hour, Annexin V-FITC/PI flow cytometry): stimulates apoptosis | cell viability ([3]; AlamarBlue): suppresses cell viability | IC50 (T47D): 5.24 µM | IC50 (Caco-2): 2.84 µM
